Results reported in US20260216134A1, “CHARGED PI-CONJUGATED MOLECULES FOR THE TREATMENT OF MICROBIAL INFECTIONS” (priority 2023, published 2026).
pIC50: −log10 of the molar value.

Experiments:
[1] = Crystal violet cytotoxicity test in A375 cells without light activation; assay type: cell-based, human; settings: human
Description: The inhibitory concentration of charged pi-conjugated compounds needed to inhibit the cell growth by 50% (toxicity IC50).
Most of the charged pi-conjugated compounds are aminocyanines which are functionalized with alkyl amine group. The charged pi-conjugated compounds were added to cell cultures of A375 cancer cells (human melanoma) and their cytotoxicity was quantified by the crystal violet test and/or clonogenic assays for cell viability. […] The longer the exposure the most cytotoxic the charged pi-conjugated compounds are towards A375 cells. […] The same behavior is observed: the longer the exposure, the more cytotoxic. All molecules presented here are aminocyanines except GL-261-2 which is a carboxyl-cyanine. […] This was the first time a therapeutic window of concentration that can be tuned to selectively kill cancer and/or protect cells was suspected. In finding this therapeutic window concentration and time of exposure are important variables that should be fine tuned.
Based on the finding described above, a larger set of charged pi-conjugated compounds was evaluated for cytotoxicity against A375 cancer cells as shown in FIG. 25 and FIG. 26.
The IC50 is the concentration needed to inhibit the cell viability by 50%. These molecules in FIG. 25 and FIG. 26 were evaluated by crystal violet assay and using 2 days of exposure.

[2] = Clonogenic assay cytotoxicity in A375 cells without light; assay type: cell-based, human; settings: human
Description: FIGS. 28A-28B provide a summary of the evidence of the cytotoxicity of charged pi-conjugated compounds without light. Toxicity was measured using clonogenic assay with 7 hours of incubation (contact time between molecules and A375 cells) and 7 days for colony formation. (FIG. 28A) The lethal concentration of the cyanine molecules to kill 50% of the A375 cells (Tox LC50) without light activation. (FIG. 28B) Chemical structure of exemplary charged pi-conjugated compounds. On average, 300 cells equal to 300 colonies were seeded and analyzed for each data point.
Both properties were measured using clonogenic assay with 7 hours of incubation (contact time between molecules and A375 cells) and 7 days for colony formation. 300 cells were seeded and analyzed for each data point.
More cytotoxicity tests were conducted in some additional molecules and using clonogenic assay for cell viability (FIG. 28). A375 cells were exposed to charged pi-conjugated compounds for 7 hours, in contrast to the previously presented assays which were conducted with crystal violet assay and 2 days of exposure. The data points showing the cytotoxicity quantification for each individual molecule are presented in FIG. 29, with resulting IC50 values summarized in Table 4.

A375 melanoma = test: Toxicity on A375 melanoma versus normal melanocytes (A375 arm); assay type: cell-based, human; settings: 1 μM concentration
Description: (§1) FIG. 32 provides evidence of toxicity of charged pi-conjugated compounds on HEMa (normal melanocytes) versus on A375 melanoma using 1 day of incubation versus 2 days of incubation. BL-204, BL-141-2, BL-304 are aminocyanines. In contrast, TS-1-32 and GL-261-2 are two names for a carboxycyanine compound shown as GL-261-2 in FIG. 23.
This characterization is accurate for long exposures (~24 h) and in 200,000 cells/mL. The limits of toxic concentration (referenced herein as a therapeutic window) can vary with the exposure time and total cell number present in the test. For example, 1 μM concentration of charged pi-conjugated compounds are safe when used at 30 min exposure in the cell culture at 200,000 cells/mL. However, about higher than 2 μM cyanine becomes toxic (~8 μM) even at short exposure time (~30 min) for 200,000 cells/mL. In contrast, for a solid tumor this lethal concentration is expected to be higher since hundreds of millions of cells are contained in a small solid tumor. The dose may be calibrated and normalized by the total number of cells. The correct therapeutic window to kill cancer cells should be expressed in μg of charged pi-conjugated compound per 1 million of cells or ug of charged pi-conjugated compound per gram of cells. […]

[3] = system: HEMa (normal melanocytes); test: Toxicity on A375 melanoma versus normal melanocytes (HEMa arm); assay type: cell-based; settings: for safety for normal skin melanocyte cells (HEMa): 1 μM concentration
Description: as §1
This characterization is accurate for long exposures (~24 h) and in 200,000 cells/mL. The limits of toxic concentration (referenced herein as a therapeutic window) can vary with the exposure time and total cell number present in the test. For example, 1 μM concentration of charged pi-conjugated compounds are safe when used at 30 min exposure in the cell culture at 200,000 cells/mL. However, about higher than 2 μM cyanine becomes toxic (~8 μM) even at short exposure time (~30 min) for 200,000 cells/mL. In contrast, for a solid tumor this lethal concentration is expected to be higher since hundreds of millions of cells are contained in a small solid tumor. The dose may be calibrated and normalized by the total number of cells. The correct therapeutic window to kill cancer cells should be expressed in μg of charged pi-conjugated compound per 1 million of cells or ug of charged pi-conjugated compound per gram of cells. […] Therefore, the presently disclosed charged pi-conjugated compounds may be useful in a clinical application in patients where the charged pi-conjugated compounds could protect the normal tissue and selectively cause toxicity to cancer cells.

S. aureus ATCC 25923 = test: Mutation frequency (rifampin-resistant colonies) on repeated treatment; assay type: cell-based, Staphylococcus aureus; settings: frequency of rifampin-resistant colonies
Description: In addition, the mutation frequency (assessed as the frequency of rifampin-resistant colonies) of S. aureus ATCC 25923 subjected to repeated treatment with charged pi-conjugated compound or the conventional antibiotic ciprofloxacin was determined.
Mutation frequency was determined using rifampin resistance as a marker. The stored cells were revived overnight in LB broth and then plated on LB agar with and without rifampin (100 mg mL^−1) (Schaaff et al., 2002). The mutation frequency was calculated as the ratio of rifampin-resistant colonies to the total number of colonies.

[4] = system: HEK293 (epithelial-like kidney cells); test: Presto Blue viability assay, HEK293; assay type: cell-based, human; settings: Homo sapiens, HEK293, 8 h, read-out: IC50 (concentration needed to inhibit cell viability by 50%)
Description: (§2) The biocompatibility of charged pi-conjugated compounds with mammalian cell lines was evaluated by studying the effects of different charged pi-conjugated compound concentrations on the viability of two mammalian cell lines: A549 (epithelial-like lung cells) and HEK293 (epithelial-like kidney cells). […] Dose-response curves were used to determine IC50 values, that is, the concentration of charged pi-conjugated compound needed to inhibit cell viability by 50%. […] The MIC of MRSA USA300 was used to calculate the therapeutic index. MRSA USA300 is a major contributor to community-associated MRSA infections, including skin and soft tissue infections, bacteraemia, endocarditis, bone and joint infections and nosocomial infections. […]
(§3) The biocompatibility of charged pi-conjugated compounds with mammalian cell lines was assessed by determining their impact on the mitochondrial activity of human alveolar basal epithelial adenocarcinoma cells (A549) and human embryonic kidney cells (HEK293T) cells, using the Presto Blue assay according to the manufacturer's protocol. […] After 8 h, Presto Blue cell viability reagent (Thermo Fisher Scientific, Waltham, MA, USA) was added to the cells, and after 2 h of incubation, fluorescence was measured using a microplate reader (BioTek Instruments Inc., Winooski, VT, USA). […] The therapeutic index was calculated from the ratio between IC50 and the MIC.

MRSA USA300 [5] = test: In vivo anti-infective activity in G. mellonella infected with MRSA; set-up: species or system Galleria mellonella; settings: 10-80 μM; vehicle-treated infected worms one day
Description: The in vivo anti-infective capacity of charged pi-conjugated compounds was evaluated in the invertebrate model G. mellonella infected with MRSA USA300. The survival curves shown in FIG. 21 illustrate the efficacy of two charged pi-conjugated compounds, BL 248 and BL 273, against MRSA USA300 infection in G. mellonella. With increasing concentrations of both molecules, there was a discernible improvement in survival compared with the vehicle-treated control group.
To evaluate the in vivo anti-infective activity of charged pi-conjugated compounds, MRSA USA300 was cultured overnight in tryptic soy broth and diluted to ~2×10^7 CFU mL^−1 in sterile phosphate-buffered saline based on OD600. Cohorts of five G. mellonella larvae (~300 mg each) were injected with 10 μL of the diluted bacterial suspension (2×10^5 […]) via the last left proleg, following larvae sterilization with 70% ethanol. One hour post-infection, the larvae were injected with increasing concentrations of charged pi-conjugated compounds or 1% DMSO (in PBS) as a negative control. Uninfected larvae were also used as controls. Larvae were incubated at 37° C., and survival was monitored afterward. Death was defined by complete melanization of the larval body and lack of movement in response to touch.

Gram-positive strains = test: MIC / MIC50 by broth microdilution in panel of Gram-positive strains; assay type: cell-based; settings: MIC50 over all Gram-positive strains tested (Table 2)
Description: Antibacterial activity was assessed by determining the minimal inhibitory concentration (MIC) and the minimal bactericidal concentrations (MBC) and by monitoring time-dependent bacterial killing of exponentially growing cells. Bacterial cell suspensions (OD600≈0.02 in cation-adjusted Muller-Hinton Broth) were treated with increasing concentrations of the different molecules. The minimal inhibitory concentration (MIC) was defined as the minimal concentration of the molecule resulting in complete bacterial growth arrest. The minimal bactericidal concentration (MBC) was defined as the lowest concentration of the molecule that killed 99.9% of the inoculum. A molecule was determined to be bactericidal if the ratio of the MBC to the MIC was less than 4 to 6. […] In M. smegmatis, the antibacterial activity of charged pi-conjugated compounds was generally lower.
The MIC values for all Gram-positive strains tested (Table 2) were used to calculate the MIC50, i.e., the minimum inhibitory concentration needed to inhibit the growth of 50% of the tested isolates (FIG. 5A). […] When the average MIC50 values were evaluated, the most susceptible bacterial genera were Streptococcus sp., followed by Staphylococcus sp. In contrast, Propionibacterium sp. had the highest average MIC50 (FIG. 5B).
The broth microdilution method was used to determine the MIC of charged pi-conjugated compounds according to the CLSI guidelines. Charged pi-conjugated compound stock solutions (16 mM) were prepared in dimethyl sulfoxide (DMSO). Serial twofold dilutions of the charged pi-conjugated compounds were freshly prepared using the appropriate liquid media (Table 2), and 100 μL of each dilution was added to the appropriate wells of 96-well microtiter plates. The bacterial inoculum was further diluted in liquid media, and 100 μL was added to each well, resulting in a final cell density of ≈5×10^5 CFU mL^−1. […] A molecule was determined to be bactericidal if the ratio of the MBC to the MIC was less than 4 to 6. […]

[6] = system: A549 (epithelial-like lung cells); test: Presto Blue viability assay, A549; assay type: cell-based; settings: Homo sapiens, 8 h treatment, read-out: IC50 (concentration needed to inhibit cell viability by 50%)
Description: as §2, §3

MRSA USA300 [7] = test: Therapeutic index calculation (IC50 of mammalian cell lines / MIC); settings: ratio of average IC50 for A549 and HEK293 to MIC in MRSA USA300
Description: as §2, §3

| SMILES | IC50 at 2 days [1] [nM] | IC50 at 7 h [2] [nM] | selectivity for killing cancer cells (A375) (A375 melanoma) | cell viability of normal skin melanocyte cells [3] | safety for normal skin melanocyte cells (HEMa) [3] | also measured |
| --- | --- | --- | --- | --- | --- | --- |
| CN(C)CCCCCC[N+]1=C(/C=C/C2=CC(=C/C=C3/N(C)c4ccc5ccccc5c4C3(C)C)/CCC2)C(C)(C)c2c1ccc1ccccc21.[I-] [BL-141-2, 3-(6-(dimethylamino)hexyl)-1,1-dimethyl-2-((E)-2-((E)-3-((E)-2-(1,1,3-trimethyl-1,3-dihydro-2H-benzo[e]indol-2-ylidene)ethylidene)cyclohex-1-en-1-yl)vinyl)-1H-benzo[e]indol-3-ium] | 750 | 400 | selective to specifically kill cancer cells | increased the cell viability | safe for normal skin melanocyte cells | – |
| O=C(O)c1cn(C2CC2)c2cc(N3CCNCC3)c(F)cc2c1=O [ciprofloxacin] | – | – | – | – | – | mutation rate across treatment cycles (S. aureus ATCC 25923): marked increase across treatment cycles |
| CN(C)C(=O)CN1/C(=C/C=C2C=C(/C=C/C3=[N+](CC(=O)N(C)C)c4ccc5ccccc5c4C3(C)C)CCC/2)C(C)(C)c2c1ccc1ccccc21.[Br-] [BL 273, 3-(2-(dimethylamino)-2-oxoethyl)-2-((E)-2-((E)-3-((E)-2-(3-(2-(dimethylamino)-2-oxoethyl)-1,1-dimethyl-1,3-dihydro-2H-benzo[e]indol-2-ylidene)ethylidene)cyclohex-1-en-1-yl)vinyl)-1,1-dimethyl-1H-benzo[e]indol-3-ium] | – | – | – | – | – | pIC50 [4]: 4.86; survival of infected worms (MRSA USA300 [5]): three or more days; antibacterial activity according to MIC50 (Gram-positive strains): strongest antibacterial activity |
| CN(C)C(=O)CN1c2ccc3ccccc3c2C(C)(C)C1/C=C/C1=CC(=C/C=C2/N(C)c3ccc4ccccc4c3C2(C)C)/CCC1.I (stereo not shown) [BL 248] | – | – | – | – | – | pIC50 [6]: 4.83; therapeutic index (MRSA USA300 [7]): 9.3 |
| CN(C)CC[N+]1=C(/C=C/C2=CC(=C/C=C3/N(C)c4ccc5ccccc5c4C3(C)C)/CCC2)C(C)(C)c2c1ccc1ccccc21.[I-] [BL-204, 3-(2-(dimethylamino)ethyl)-1,1-dimethyl-2-((E)-2-((E)-3-((E)-2-(1,1,3-trimethyl-1,3-dihydro-2/I-benzo[e]indol-2-ylidene)ethylidene)cyclohex-1-en-1-yl)vinyl)-1H-benzo[e]indol-3-ium] | 600 | 220 | selective to specifically kill cancer cells | increased the cell viability | safe for normal skin melanocyte cells | – |
